Experimental data taken from patent US9242933B2 (AbbVie Deutschland GmbH & Co. KG, priority 2007, dated 2016).

Target: T1, human mGlu2 receptor (Homo sapiens, UniProt Q14416)
T1 construct: expressed in transfected cells; host or cells: HEK293
Assay: FLIPR intracellular Ca2+ assay, potentiation of glutamate response in HEK293 clone expressing mGlu2 receptor, rGLAST and Galpha16
Type: cell-based
Settings: 1 μM glutamate added ten minutes after test compound, HEK293 cells with human mGlu2, rGLAST, Galpha16, read-out: EC50 values of potentiation effect to glutamate
Source text: The compounds of the present invention can be tested e.g. by evaluating intracellular Ca^2+ concentrations in cells permanently expressing human mGlu receptor, the rat glutamate transporter rGLAST and the Galpha16 subunit of the G-protein complex under standard conditions in a fluorometric imaging plate reader (FLIPR, Molecular Devices, Union City, Calif. 94587, USA) by measuring the response of the cells to a test compound in the absence of presence of glutamate. The FLIPR assay is a common functional assay to monitor native or recombinant Galphaq-coupled receptors, and native or recombinant receptors normally linked to other G-protein signalling cascades, which are coupled to calcium through co-expression of an alpha subunit of a promiscuous or chimeric G-protein. In the assay the increase of intracellular calcium is measured through a calcium-dependent fluorescent dye (e.g. Fluo-4 AM) in the FLIPR instrument.
For the purpose of the present study, a cell line permanently expressing a human mGlu receptor, such as the mGlu2 receptor, the rat glutamate transporter rGLAST and the GalphaG16 may be generated by transfection as described in the examples. For selection of a suitable cell clone and also the subsequent measurements, the selected clone the cells will be plated on suitable multiwell plates in a suitable medium (e.g. DMEM Glutamax (GIBCO #21885-025)/10% dialyzed FCS). Cells may be selected by gentamycin treatment as described in the examples. Cells will then be loaded with a suitable Ca^2+ sensitive fluorescence dye, e.g. with 2 μM Fluo-4 AM (Molecular Probes, F14201). Cells will then be washed with a suitable buffer (e.g. HEPES) and the thus treated plates will be measured in a fluorometric imaging plate reader (e.g. FLIPR, Molecular Devices, Union City, Calif. 94587, USA).
The compounds of the present invention were tested in the above-described FLIPR assay using the selected cell clone. Increased intracellular calcium levels were quantified following addition of test compound (agonism), as well as following addition of a submaximal concentration of glutamate (potentiation).
For the determination of the effect of the test compound by itself (agonism) or by increasing the response to a submaximal concentration (e.g. 1 μM) of glutamate (potentiation), the resulting signal is determined by subtraction of the background fluorescence from the maximal fluorescent peak height of the respective response. In the FLIPR instrument the compound is given to the cell and its fluorescence response quantified by the FLIPR instrument (agonism). The concentration at which the compound exerts half its maximal effect is named the ‘effective concentration 50’ or ‘EC50’. The maximal effect induced by the test substance is normalized to the maximal effect exerted by 100 μM glutamate (set at 100%).
After addition of the test compound to the plate, a submaximal concentration of glutamate (e.g. 1 μM glutamate) will be added. A potentiator enhances the response of the receptor to glutamate. The response to glutamate in the presence of test compound is quantified. The concentration at which the test compound is able to exert half its maximal potentiation effect to glutamate is named the ‘EC50’. The maximal response to the submaximal concentration of glutamate (e.g. 1 micromolar glutamate) in the presence of test compound is normalized to the maximal effect exerted by 100 micromolar glutamate (set at 100%). Least squares curve fitting with a four-parameter equation is then applied to the resulting dose-response curve to determine the resulting EC5O values (Graph Pad Prism).
For the purpose of the present study, a cell line permanently expressing the human mGlu2 receptor, the rat glutamate transporter rGLAST and the alpha subunit of G16 was generated by transfection. […]

T1 sequence (Q14416 19-872): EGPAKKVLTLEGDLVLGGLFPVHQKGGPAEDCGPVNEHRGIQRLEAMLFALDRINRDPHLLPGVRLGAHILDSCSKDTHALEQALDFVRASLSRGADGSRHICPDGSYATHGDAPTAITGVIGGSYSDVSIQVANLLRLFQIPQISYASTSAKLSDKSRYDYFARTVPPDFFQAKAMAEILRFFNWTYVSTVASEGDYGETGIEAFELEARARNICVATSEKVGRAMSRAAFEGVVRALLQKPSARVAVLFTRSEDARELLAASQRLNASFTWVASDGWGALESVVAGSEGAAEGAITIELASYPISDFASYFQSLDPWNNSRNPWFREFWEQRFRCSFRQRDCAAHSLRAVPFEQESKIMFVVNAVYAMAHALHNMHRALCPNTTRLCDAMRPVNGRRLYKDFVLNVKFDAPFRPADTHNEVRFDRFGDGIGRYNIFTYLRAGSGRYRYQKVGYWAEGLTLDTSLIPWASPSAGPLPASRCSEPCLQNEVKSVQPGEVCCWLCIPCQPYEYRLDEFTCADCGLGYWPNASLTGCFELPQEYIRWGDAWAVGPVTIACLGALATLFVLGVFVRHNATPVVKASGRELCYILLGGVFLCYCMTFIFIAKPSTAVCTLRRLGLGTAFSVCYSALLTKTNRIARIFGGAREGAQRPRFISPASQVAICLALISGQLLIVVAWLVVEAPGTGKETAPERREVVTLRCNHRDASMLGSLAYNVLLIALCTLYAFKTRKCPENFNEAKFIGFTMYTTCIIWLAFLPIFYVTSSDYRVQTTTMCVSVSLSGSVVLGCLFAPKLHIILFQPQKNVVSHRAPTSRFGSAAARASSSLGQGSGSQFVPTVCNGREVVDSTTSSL

Compound | EC50 [nM]
CCN1Cc2cc(OCc3c[nH]nc3-c3cccc(F)c3)ccc2C1=O [Example 560, 2-Ethyl-5-[3-(3-fluorophenyl)-1H-pyrazol-4-ylmethoxy]-2,3-dihydro-isoindol-1-one] | < 1000
CC(=O)c1ccc(OCc2c[nH]nc2-c2ccc(C(F)(F)F)cc2)c(C)c1 [Example 488, 1-{3-Methyl-4-[3-(4-trifluoromethyl-phenyl)-1H-pyrazol-4-ylmethoxy]-phenyl}-ethanone] | 1000 to 10000
CCCC(=O)c1ccc(NCc2cnn(C)c2-c2ccc(C(F)(F)F)cc2)cc1 [Example 375, 1-(4-{[1-Methyl-5-(4-trifluoromethyl-phenyl)-1H-pyrazol-4-ylmethyl]-amino}-phenyl)-butan-1-one] | < 1000
CCCC(=O)c1ccc(NCc2ccc(N3CCCCC3)nc2)cc1 [Example 312, 1-{4-[(3,4,5,6-Tetrahydro-2H-[1,2′]bipyridinyl-5′-ylmethyl)-amino]-phenyl}-butan-1-one] | 1000 to 10000
CCCC(=O)c1ccc(NCc2cn(-c3ccccc3)nc2-c2ccc(F)cc2)cc1 [Example 221, 1-(4-{[3-(4-Fluorophenyl)-1-phenyl-1H-pyrazol-4-ylmethyl]-amino}-phenyl)-butan-1-one] | 1000 to 10000
2-Propyl-6-{[3-(4-trifluoromethyl-phenyl)-1H-pyrazol-4-ylmethyl]-amino}-2,3-dihydro-isoquinolin-1-one [Example 584] | < 1000
CC(=O)c1ccc(NCc2c[nH]nc2-c2ccc(Cl)cc2)c(C)c1O [Example 440, 1-(4-{[3-(4-Chloro-phenyl)-1H-pyrazol-4-ylmethyl]-amino}-2-hydroxy-3-methyl-phenyl)-ethanone] | < 1000
CCCC(=O)c1ccc(NCc2c[nH]nc2-c2cccc(C(F)(F)F)c2)cc1OC [Example 434, 1-(2-Methoxy-4-{[3-(3-trifluoromethyl-phenyl)-1H-pyrazol-4-ylmethyl]-amino}-phenyl)-butan-1-one] | < 1000
CCCC(=O)c1ccc(NCc2c(C)nn(C)c2Oc2cccc(Cl)c2)cc1 [Example 50, 1-(4-{[5-(3-Chlorophenoxy)-1,3-dimethyl-1H-pyrazol-4-ylmethyl]amino}phenyl)butan-1-one] | 1000 to 10000
O=C1c2ccc(OCc3c[nH]nc3-c3ccc(Cl)cc3)cc2CN1CCC(F)(F)F [Example 539, 5-[3-(4-Chloro-phenyl)-1H-pyrazol-4-ylmethoxy]-2-(3,3,3-trifluoro-propyl)-2,3-dihydro-isoindol-1-one] | < 1000
CCC(=O)c1ccc(OCc2c[nH]nc2-c2ccc(C(F)(F)F)cc2)cc1 [Example 489, 1-{4-[3-(4-Trifluoromethyl-phenyl)-1H-pyrazol-4-ylmethoxy]-phenyl}-propan-1-one] | < 1000
CCN1Cc2cc(OCc3c[nH]nc3-c3ccc(F)cc3)ccc2C1=O [Example 559, 2-Ethyl-5-[3-(4-fluorophenyl)-1H-pyrazol-4-ylmethoxy]-2,3-dihydro-isoindol-1-one] | < 1000
CCCOc1ccc(NCc2c[nH]nc2C(C)(C)C)cc1 [Example 273, (3-tert-Butyl-1H-pyrazol-4-ylmethyl)-(4-propoxy-phenyl)-amine] | 1000 to 10000
O=C1c2ccc(OCc3c[nH]nc3-c3ccc(C(F)(F)F)cc3)cc2CN1c1ccccc1 [Example 589, 2-Phenyl-5-[3-(4-trifluoromethyl-phenyl)-1H-pyrazol-4-ylmethoxy]-2,3-dihydro-isoindol-1-one] | 1000 to 10000
CCCC(=O)c1ccc(NCc2c(C)n[nH]c2C)cc1 [Example 224, 1-{4-[(3,5-Dimethyl-1H-pyrazol-4-ylmethyl)-amino]-phenyl}-butan-1-one] | 1000 to 10000
CCCC(=O)c1ccc(NCc2n[nH]cc2-c2ccc(Cl)cc2)cc1 [Example 518, 1-(4-{[4-(4-Chloro-phenyl)-1H-pyrazol-3-ylmethyl]-amino}-phenyl)-butan-1-one] | 1000 to 10000
CCCC(=O)c1ccc(NCc2ccc(OC3CCCC3)nc2)cc1 [Example 313, 1-{4-[(6-Cyclopentyloxy-pyridin-3-ylmethyl)-amino]-phenyl}-butan-1-one] | 1000 to 10000

Compound | EC50 [nM]
CCCCN1Cc2cc(OCc3c[nH]nc3-c3ccc(F)cc3)ccc2C1=O [Example 548, 2-Butyl-5-[3-(4-fluorophenyl)-1H-pyrazol-4-ylmethoxy]-2,3-dihydro-isoindol-1-one] | < 1000
CCCC(=O)c1ccc(SCc2c[nH]nc2-c2ccc(C(F)(F)F)cc2)cc1 [Example 492, 1-{4-[3-(4-Trifluoromethyl-phenyl)-1H-pyrazol-4-ylmethylsulfanyl]-phenyl}-butan-1-one] | 1000 to 10000
CCCC(=O)c1ccc(NCc2n[nH]cc2-c2ccc(C(F)(F)F)cc2)cc1 [Example 517, 1-(4-{[4-(4-Trifluoromethyl-phenyl)-1H-pyrazol-3-ylmethyl]-amino}-phenyl)-butan-1-one] | < 1000
CCCC(=O)c1ccc(OCc2c[nH]nc2-c2cccc(C(F)(F)F)c2)cc1 [Example 498, 1-{4-[3-(3-Trifluoromethyl-phenyl)-1H-pyrazol-4-ylmethoxy]-phenyl}-butan-1-one] | < 1000
O=C(c1ccc(NCc2c[nH]nc2-c2ccc(C(F)(F)F)cc2)cc1)C(F)(F)F [Example 506, 2,2,2-Trifluoro-1-(4-{[3-(4-trifluoromethyl-phenyl)-1H-pyrazol-4-ylmethyl]-amino}-phenyl)-ethanone] | 1000 to 10000
O=C1c2ccc(OCc3c[nH]nc3-c3ccc(C(F)(F)F)cc3)cc2CN1CCCC(F)(F)F [Example 552, 2-(4,4,4-Trifluoro-butyl)-5-[3-(4-trifluoromethyl-phenyl)-1H-pyrazol-4-ylmethoxy]-2,3-dihydro-isoindol-1-one] | < 1000
CCCC(=O)c1ccc(NCc2c[nH]nc2C(C)C)cc1 [Example 477, 1-{4-[(3-Isopropyl-1H-pyrazol-4-ylmethyl)-amino]-phenyl}-butan-1-one] | 1000 to 10000
CCCN1Cc2cc(NCc3c[nH]nc3-c3cccc(C(F)(F)F)c3)ccc2C1=O [Example 578] | < 1000
CCCC(=O)c1ccc(NCc2cn(C)cn2)cc1 [Example 228, 1-{4-[(1-Methyl-1H-imidazol-4-ylmethyl)-amino]-phenyl}-butan-1-one] | 1000 to 10000
CCCC(=O)c1cccc(NCc2n[nH]cc2-c2ccc(OC)cc2)c1 [Example 514, 1-(3-{[4-(4-Methoxy-phenyl)-1H-pyrazol-3-ylmethyl]-amino}-phenyl)-butan-1-one] | 1000 to 10000
O=C1c2ccc(OCc3c[nH]nc3-c3ccc(Cl)c(Cl)c3)cc2CN1CCCC(F)(F)F [Example 554, 5-[3-(3,4-dichloro-phenyl)-1H-pyrazol-4-ylmethoxy]-2-(4,4,4-trifluoro-butyl)-2,3-dihydro-isoindol-1-one] | < 1000
CCCN1Cc2cc(NCc3c(C)noc3-c3ccccc3)ccc2C1=O [Example 590, 5-[(3-Methyl-5-phenyl-isoxazol-4-ylmethyl)-amino]-2-propyl-2,3-dihydro-isoindol-1-one] | < 1000
CCCC(=O)c1ccc(NCc2cn(C)nc2-c2ccc(C(F)(F)F)cc2)cc1 [Example 374, 1-(4-{[1-Methyl-3-(4-trifluoromethyl-phenyl)-1H-pyrazol-4-ylmethyl]-amino}-phenyl)-butan-1-one] | < 1000
CCCC(=O)c1ccc(NCc2csc(C(C)C)n2)cc1 [Example 268, 1-{4-[(2-Isopropyl-thiazol-4-ylmethyl)-amino]-phenyl}-butan-1-one] | 1000 to 10000
O=C1CCc2cc(NCc3c[nH]nc3-c3ccc(C(F)(F)F)cc3)ccc21 [Example 81, 5-{[3-(4-Trifluoromethylphenyl)-1H-pyrazol-4-ylmethyl]-amino}-indan-1-one] | 1000 to 10000
CCCCN1Cc2cc(OCc3c[nH]nc3-c3ccc(C(F)(F)F)cc3)ccc2C1=O [Example 544, 2-Butyl-5-[3-(4-trifluoromethyl-phenyl)-1H-pyrazol-4-ylmethoxy]-2,3-dihydro-isoindol-1-one] | < 1000
